Reference: patent US20250298028A1, “METHOD FOR SCREENING DRUGS FOR TREATING MULTIPLE-VARIANT CORONAVIRUS DISEASE” (KOREA UNIVERSITY RESEARCH AND BUSINESS FOUNDATION, priority 2022, published 2025)

Experiments:
[1] = target: T1, main protease (M^pro) of SARS-COV-2 (Severe acute respiratory syndrome coronavirus 2, UniProt P0DTD1); assay: biochemical
[2] = target: T1, main protease (M^pro) of SARS-COV-2; assay: TEM observation of the reaction of MCAP-AuNP with M^pro after M^pro inhibitor treatment; type: biochemical; conditions: TEM images, FIG. 10B-10D

Structure (SMILES)	IC50 [1]	activity of M^pro after M^pro inhibitor treatment (effect on MCAP-AuNP, TEM image) [2]
Cc1cccc(C)c1OCC(=O)N[C@@H](Cc1ccccc1)[C@@H](O)C[C@H](Cc1ccccc1)NC(=O)[C@H](C(C)C)N1CCCNC1=O [lopinavir]	10.7 µM	inhibited
CC(=O)N[C@@H](CC(C)C)C(=O)N[C@@H](CC(C)C)C(=O)N[C@H](C=O)CCCNC(=N)N [leupeptin]	28.6 µM	inhibited
COc1ccc([C@@H]2CC(=O)c3c(O)cc(O)cc3O2)cc1O [hesperetin]	43.1 µM	inhibited
